Converted amounts (≈) assume the structure as drawn. Positions of bridges follow the written chain, without caps; N, C: chain ends. Non-standard residues stand in square brackets, D forms with d. Residues, ends and D or L forms follow the SMILES beside them. *: point of attachment. Phenylthio(4-OPh) = c1ccc(Oc2ccc(S*)cc2)cc1; S(2-cyclohexylethyl) = C1CCC(CCS*)CC1; S(3-Methylbutyl) = CC(C)CCS*; X6 = c1ccc(-c2ccc(S*)cc2)cc1; Dab = NCC[C@H](N)C(=O)O; X1 = CC(C)CCCCS*; X4 = CCCCCCS*
Legend:
[1] = system: P. aeruginosa (ATCC 27853); format: cell-based; settings: ATCC 27853
Experimental: (§1) Minimum inhibitory concentrations (MICs) on relevant Gram-negative bacteria were determined by broth microdilution, in accordance with CLSI guidelines. Indicated bacteria were taken from glycerol stocks and incubated overnight on blood agar at 37 °C. Well-isolated colonies were taken, suspended in TSB (5 mL), and grown to an OD600 of 0.5. Compounds to be tested were dissolved in DMSO (6.4 mg/mL), diluted in cation-adjusted Mueller–Hinton Broth (CAMHB) (12.5 and 20 μg/mL Mg^2+ and Ca^2+, respectively), and diluted serially on polypropylene microtiter plates. To the diluted compounds (50 μL per well) was added 50 μL of relevant bacterial suspension, to yield a final concentration of 10^6 CFU/mL. Plates were covered by adhesive gas-permeable membranes and incubated at 37 °C. MIC was read out as the lowest concentration that inhibited visual bacterial growth. Shown values are consistent results from at least duplicate experiments.

[2] = system: A. baumannii (ATCC 19606); format: cell-based; settings: ATCC 19606
Experimental: as §1

[3] = system: K. pneumoniae (ATCC 13883); format: cell-based; settings: ATCC 13883
Experimental: as §1

[4] = system: E. coli (ATCC 25922); format: cell-based; settings: ATCC 25922
Experimental: as §1

[5] = system: differentiated conditionally immortalized PTECs (ciPTECs, OAT-1); assay: ciPTEC toxicity assay (PrestoBlue); format: cell-based, human
Experimental: ciPTECs (OAT-1) cells,[52],[53] grown to 90–100% confluence, were washed by Hanks’ balanced salt solution (HBSS; Gibco, Life Technologies, Paisley, U.K.) and detached by accutase (4 mL) for 5 min at 37 °C. The cells were then suspended in fresh medium (DMEM/F-12, supplemented with 10% fetal calf serum, insulin (5 μg/mL), transferrin (5 μg/mL), selenium (5 μg/mL) hydrocortisone (35 ng/mL), Epidermal Growth Factor (10 ng/mL) and tri-iodothyronine (40 pg/mL)). Cell density was adjusted to 2.0 × 10^5 cells/mL, of which 100 μL was added to each well of a 96-well plate. The cells were incubated for 24 h at 33 °C, followed by 6 days at 37 °C, in a humidified atmosphere containing 5% (v/v) CO2. The medium was refreshed every second or third day.
Compounds were dissolved and serially diluted in serum-free medium. Differentiated cells were washed once with HBSS and serially diluted compounds (80 μL/well) were transferred to the ciPTEC-containing plate. Compounds were incubated for 24 h at 37 °C; the cells were washed by HBSS, followed by incubation with 10% PrestoBlue cell viability reagent (Thermo Scientific, Vienna, Austria) in HBSS at 37 °C in the dark. Fluorescence was recorded (excitation: 530 nm, emission: 590 nm). Raw data are corrected for PrestoBlue background fluorescence and reported relative to the no-treatment control (cells with medium only). Viability data were fitted with GraphPad Prism software (version 5.03; GraphPad Software, La Jolla, CA), by nonlinear regression with 0 as bottom constraint. Presented data are based on triplicates.
Toxicity assessment on PTECs
Table S1. TC50 values for polymyxin analogues. Toxicity assessment on proximal tubular epithelial cells
performed using PrestoBlue™ assay. TC50 values are derived after non-linear regression analysis on cell viability
correspond to data obtained from 2 different batches of cells/analyses on different days. As the value for
polymyxin B differs 2-fold, values in the manuscript are presented relative to the polymyxin B value.
Compound TC50 (µ M) Compound TC50 (µ M)
Polymyxin B 80 Polymyxin B 41
Figure S3. Representative traces of ciPTECs’ viability after incubation with analogues for 24 hours. Shown data are based on […]

| Structure (SMILES) | MIC P. aeruginosa (ATCC 27853) [1] [µg/mL] | MIC A. baumannii (ATCC 19606) [2] [µg/mL] | MIC K. pneumoniae (ATCC 13883) [3] [µg/mL] | MIC E. coli (ATCC 25922) [4] [µg/mL] | TC50, Day 1 [5] [µM] | ciPTEC Toxicity Index (relative to polymyxin B) [5] |
| --- | --- | --- | --- | --- | --- | --- |
| CC(C)C[C@@H]1NC(=O)[C@@H](Cc2ccccc2)NC(=O)[C@H](CCN)NC(=O)[C@@H](NC(=O)[C@H](CCN)NC(=O)[C@@H](NC(=O)[C@@H](N)CSSCCC2CCCCC2)[C@@H](C)O)CCNC(=O)[C@H]([C@@H](C)O)NC(=O)[C@H](CCN)NC(=O)[C@H](CCN)NC1=O [Compound 19a] (H-C(S(2-cyclohexylethyl))T[Dab][Dab][Dab][dF]L[Dab][Dab]T; lactam 4-C) | 4 (≈ 3.31 µM) | 32 (≈ 26.5 µM) | 4 (≈ 3.31 µM) | 8 (≈ 6.62 µM) | – | – |
| CC(C)CCCCSSC[C@H](N)C(=O)N[C@H](C(=O)N[C@@H](CCN)C(=O)N[C@H]1CCNC(=O)[C@H]([C@@H](C)O)NC(=O)[C@H](CCN)NC(=O)[C@H](CCN)NC(=O)[C@H](CC(C)C)NC(=O)[C@@H](Cc2ccccc2)NC(=O)[C@H](CCN)NC1=O)[C@@H](C)O [Compound 20a] (H-C(X1)T[Dab][Dab][Dab][dF]L[Dab][Dab]T; lactam 4-C) | 2 (≈ 1.67 µM) | 4 (≈ 3.34 µM) | 1 (≈ 0.836 µM) | 2 (≈ 1.67 µM) | – | – |
| CCCCCCSSC[C@H](NC(=O)CN)C(=O)N[C@H](C(=O)N[C@@H](CCN)C(=O)N[C@H]1CCNC(=O)[C@H]([C@@H](C)O)NC(=O)[C@H](CCN)NC(=O)[C@H](CCN)NC(=O)[C@H](CC(C)C)NC(=O)[C@@H](Cc2ccccc2)NC(=O)[C@H](CCN)NC1=O)[C@@H](C)O [Compound 21a] (H-GC(X4)T[Dab][Dab][Dab][dF]L[Dab][Dab]T; lactam 5-C) | 2 (≈ 1.61 µM) | 2 (≈ 1.61 µM) | 1 (≈ 0.807 µM) | 4 (≈ 3.23 µM) | – | – |
| CC(C)CCSSC[C@H](NC(=O)CN)C(=O)N[C@H](C(=O)N[C@@H](CCN)C(=O)N[C@H]1CCNC(=O)[C@H]([C@@H](C)O)NC(=O)[C@H](CCN)NC(=O)[C@H](CCN)NC(=O)[C@H](CC(C)C)NC(=O)[C@@H](Cc2ccccc2)NC(=O)[C@H](CCN)NC1=O)[C@@H](C)O [Compound 22a] (H-GC(S(3-Methylbutyl))T[Dab][Dab][Dab][dF]L[Dab][Dab]T; lactam 5-C) | 2 (≈ 1.63 µM) | 4 (≈ 3.26 µM) | 2 (≈ 1.63 µM) | – | 305 | 3.8 |
| CC(C)C[C@@H]1NC(=O)[C@@H](Cc2ccccc2)NC(=O)[C@H](CCN)NC(=O)[C@@H](NC(=O)[C@H](CCN)NC(=O)[C@@H](NC(=O)[C@@H](N)CSSc2ccc(-c3ccccc3)cc2)[C@@H](C)O)CCNC(=O)[C@H]([C@@H](C)O)NC(=O)[C@H](CCN)NC(=O)[C@H](CCN)NC1=O [Compound 29a] (H-C(X6)T[Dab][Dab][Dab][dF]L[Dab][Dab]T; lactam 4-C) | 8 (≈ 6.4 µM) | 32 (≈ 25.6 µM) | 4 (≈ 3.2 µM) | 4 (≈ 3.2 µM) | – | – |
| CC(C)C[C@@H]1NC(=O)[C@@H](Cc2ccccc2)NC(=O)[C@H](CCN)NC(=O)[C@@H](NC(=O)[C@H](CCN)NC(=O)[C@@H](NC(=O)[C@H](N)CSSc2ccc(-c3ccccc3)cc2)[C@@H](C)O)CCNC(=O)[C@H]([C@@H](C)O)NC(=O)[C@H](CCN)NC(=O)[C@H](CCN)NC1=O [Compound 29b] (H-[dC](X6)T[Dab][Dab][Dab][dF]L[Dab][Dab]T; lactam 4-C) | 8 (≈ 6.4 µM) | 8 (≈ 6.4 µM) | 2 (≈ 1.6 µM) | 8 (≈ 6.4 µM) | – | – |
| CC(C)C[C@@H]1NC(=O)[C@@H](Cc2ccccc2)NC(=O)[C@H](CCN)NC(=O)[C@@H](NC(=O)[C@H](CCN)NC(=O)[C@@H](NC(=O)[C@@H](N)CSSc2ccc(Oc3ccccc3)cc2)[C@@H](C)O)CCNC(=O)[C@H]([C@@H](C)O)NC(=O)[C@H](CCN)NC(=O)[C@H](CCN)NC1=O [Compound 30a] (H-C(Phenylthio(4-OPh))T[Dab][Dab][Dab][dF]L[Dab][Dab]T; lactam 4-C) | 4 (≈ 3.16 µM) | >32 | 4 (≈ 3.16 µM) | 4 (≈ 3.16 µM) | – | – |
| CC(C)C[C@@H]1NC(=O)[C@@H](Cc2ccccc2)NC(=O)[C@H](CCN)NC(=O)[C@@H](NC(=O)[C@H](CCN)NC(=O)[C@@H](NC(=O)[C@H](N)CSSc2ccc(Oc3ccccc3)cc2)[C@@H](C)O)CCNC(=O)[C@H]([C@@H](C)O)NC(=O)[C@H](CCN)NC(=O)[C@H](CCN)NC1=O [Compound 30b] (H-[dC](Phenylthio(4-OPh))T[Dab][Dab][Dab][dF]L[Dab][Dab]T; lactam 4-C) | 4 (≈ 3.16 µM) | 4 (≈ 3.16 µM) | 2 (≈ 1.58 µM) | 4 (≈ 3.16 µM) | – | – |
| CC(C)C[C@@H]1NC(=O)[C@@H](Cc2ccccc2)NC(=O)[C@H](CCN)NC(=O)[C@@H](NC(=O)[C@H](CCN)NC(=O)[C@@H](NC(=O)[C@H](CSSc2ccc(-c3ccccc3)cc2)NC(=O)CN)[C@@H](C)O)CCNC(=O)[C@H]([C@@H](C)O)NC(=O)[C@H](CCN)NC(=O)[C@H](CCN)NC1=O [Compound 31a] (H-GC(X6)T[Dab][Dab][Dab][dF]L[Dab][Dab]T; lactam 5-C) | 8 (≈ 6.12 µM) | 16 (≈ 12.2 µM) | 2 (≈ 1.53 µM) | 4 (≈ 3.06 µM) | – | – |
| CC(C)C[C@@H]1NC(=O)[C@@H](Cc2ccccc2)NC(=O)[C@H](CCN)NC(=O)[C@@H](NC(=O)[C@H](CCN)NC(=O)[C@@H](NC(=O)[C@@H](CSSc2ccc(-c3ccccc3)cc2)NC(=O)CN)[C@@H](C)O)CCNC(=O)[C@H]([C@@H](C)O)NC(=O)[C@H](CCN)NC(=O)[C@H](CCN)NC1=O [Compound 31b] (H-G[dC](X6)T[Dab][Dab][Dab][dF]L[Dab][Dab]T; lactam 5-C) | 8 (≈ 6.12 µM) | 16 (≈ 12.2 µM) | 4 (≈ 3.06 µM) | 8 (≈ 6.12 µM) | – | – |
| CC(C)C[C@@H]1NC(=O)[C@@H](Cc2ccccc2)NC(=O)[C@H](CCN)NC(=O)[C@@H](NC(=O)[C@H](CCN)NC(=O)[C@@H](NC(=O)[C@H](CSSc2ccc(Oc3ccccc3)cc2)NC(=O)CN)[C@@H](C)O)CCNC(=O)[C@H]([C@@H](C)O)NC(=O)[C@H](CCN)NC(=O)[C@H](CCN)NC1=O [Compound 32a] (H-GC(Phenylthio(4-OPh))T[Dab][Dab][Dab][dF]L[Dab][Dab]T; lactam 5-C) | 8 (≈ 6.04 µM) | 32 (≈ 24.2 µM) | 4 (≈ 3.02 µM) | 8 (≈ 6.04 µM) | – | – |
| CC(C)C[C@@H]1NC(=O)[C@@H](Cc2ccccc2)NC(=O)[C@H](CCN)NC(=O)[C@@H](NC(=O)[C@H](CCN)NC(=O)[C@@H](NC(=O)[C@@H](CSSc2ccc(Oc3ccccc3)cc2)NC(=O)CN)[C@@H](C)O)CCNC(=O)[C@H]([C@@H](C)O)NC(=O)[C@H](CCN)NC(=O)[C@H](CCN)NC1=O [Compound 32b] (H-G[dC](Phenylthio(4-OPh))T[Dab][Dab][Dab][dF]L[Dab][Dab]T; lactam 5-C) | 4 (≈ 3.02 µM) | 8 (≈ 6.04 µM) | 4 (≈ 3.02 µM) | 8 (≈ 6.04 µM) | – | – |
| CC(C)C[C@@H]1NC(=O)[C@@H](Cc2ccccc2)NC(=O)[C@H](CCN)NC(=O)[C@@H](NC(=O)[C@H](CCN)NC(=O)[C@@H](N)[C@@H](C)O)CCNC(=O)[C@H]([C@@H](C)O)NC(=O)[C@H](CCN)NC(=O)[C@H](CCN)NC1=O [PMBN, polymyxin B nonapeptide, reference compound] (H-T[Dab][Dab][Dab][dF]L[Dab][Dab]T; lactam 3-C) | >32 | >32 | >32 | >32 | – | – |
